Experimental data reported in article PMC6801708 (2019).

Tested on: Pu22T14T23 (DNA, G4, none (G-to-T mutations at positions 14 and 23)) TGAGGGTGGGTAGGGTGGGTAA
Test: CD melting at 262 nm
Conditions: K+ (20 mM KCl); 5 mM phosphate pH 7.0; 1 µM DNA, 3 µM ligand; Tm 77.4 to 80.6

ΔTm | SMILES
+3.2 °C | CN(C)CCNC(=O)c1cccn2c(=O)c3cc4ccccc4cc3nc12
+3.2 °C | CN(C)CCNC(=O)c1cccn2c(=O)c3sc4ccccc4c3nc12
